From patent EP4745137A1 (Gluetacs Therapeutics (Shanghai) Co., Ltd., priority 2023, dated 2025)

Assays:
[1] = target: T1, human Cereblon WT GST-tagged protein (Homo sapiens, UniProt Q96SW2); test: CRBN-binding affinity by HTRF (CEREBLON BINDING kit); settings: HTRF inhibitory activity, CEREBLON BINDING kit; read-out: HTRF IC50
T1 construct: purchased CISBIO 64BDCRBNPEH

[2] = tested on: Human breast cancer cells (MDA-MB-231); test: Tumor cell proliferation inhibition (CellTiter-Meiluncell Luminescent Cell Viability Assay), MDA-MB-231; settings: MDA-MB-231, 96 h, read-out: inhibitory activity (IC50, nM) against tumor cells proliferation, MDA-MB-231
[3] = target: T2, CK1α (Homo sapiens, UniProt P48729+Q96SW2); test: Western-blot assay of substrate protein degradation in hPBMCs, CK1α; format: cell-based; settings: 24 hours of compound treatment, compounds tested at 50 nM and 500 nM (concentration of the table not stated)
T2 construct: endogenous in cells; host or cells: hPBMCs (Milecell Biotechnologies)

[4] = target: T3, IKZF2 (Homo sapiens, UniProt Q96SW2+Q9UKS7); test: Western-blot assay of substrate protein degradation in hPBMCs, IKZF2; format: cell-based; settings: 24 hours of compound treatment, compounds tested at 50 nM and 500 nM (concentration of the table not stated)
T3 construct: endogenous in cells; host or cells: hPBMCs (Milecell Biotechnologies)
T3 sequence (Q9UKS7 whole entry): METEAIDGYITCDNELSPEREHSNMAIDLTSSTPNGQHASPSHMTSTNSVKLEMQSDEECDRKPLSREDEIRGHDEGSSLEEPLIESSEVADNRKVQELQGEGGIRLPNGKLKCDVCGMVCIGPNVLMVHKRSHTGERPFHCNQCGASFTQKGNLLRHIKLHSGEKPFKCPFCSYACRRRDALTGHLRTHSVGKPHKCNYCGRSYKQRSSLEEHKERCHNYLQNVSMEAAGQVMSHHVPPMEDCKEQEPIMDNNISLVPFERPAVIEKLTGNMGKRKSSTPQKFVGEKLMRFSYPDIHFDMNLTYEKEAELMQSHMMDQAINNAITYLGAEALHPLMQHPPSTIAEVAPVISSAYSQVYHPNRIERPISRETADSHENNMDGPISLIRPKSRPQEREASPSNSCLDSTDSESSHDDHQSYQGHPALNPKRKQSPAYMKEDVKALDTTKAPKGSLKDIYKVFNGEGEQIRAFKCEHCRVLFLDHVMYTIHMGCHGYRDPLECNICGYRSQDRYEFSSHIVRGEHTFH
T3 sequence (Q96SW2 whole entry): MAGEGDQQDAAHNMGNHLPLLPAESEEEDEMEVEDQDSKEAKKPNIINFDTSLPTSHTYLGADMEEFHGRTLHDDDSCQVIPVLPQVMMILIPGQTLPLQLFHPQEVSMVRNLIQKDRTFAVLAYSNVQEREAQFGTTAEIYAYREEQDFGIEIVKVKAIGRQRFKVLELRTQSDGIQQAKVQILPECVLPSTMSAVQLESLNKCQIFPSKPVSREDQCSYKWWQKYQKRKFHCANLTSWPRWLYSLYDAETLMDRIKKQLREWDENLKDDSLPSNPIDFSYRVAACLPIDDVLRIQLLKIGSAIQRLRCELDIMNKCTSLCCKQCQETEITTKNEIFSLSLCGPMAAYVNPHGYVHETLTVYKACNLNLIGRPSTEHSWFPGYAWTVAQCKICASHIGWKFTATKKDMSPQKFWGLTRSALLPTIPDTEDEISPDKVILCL
T3 sequence (Q16531 whole entry partner): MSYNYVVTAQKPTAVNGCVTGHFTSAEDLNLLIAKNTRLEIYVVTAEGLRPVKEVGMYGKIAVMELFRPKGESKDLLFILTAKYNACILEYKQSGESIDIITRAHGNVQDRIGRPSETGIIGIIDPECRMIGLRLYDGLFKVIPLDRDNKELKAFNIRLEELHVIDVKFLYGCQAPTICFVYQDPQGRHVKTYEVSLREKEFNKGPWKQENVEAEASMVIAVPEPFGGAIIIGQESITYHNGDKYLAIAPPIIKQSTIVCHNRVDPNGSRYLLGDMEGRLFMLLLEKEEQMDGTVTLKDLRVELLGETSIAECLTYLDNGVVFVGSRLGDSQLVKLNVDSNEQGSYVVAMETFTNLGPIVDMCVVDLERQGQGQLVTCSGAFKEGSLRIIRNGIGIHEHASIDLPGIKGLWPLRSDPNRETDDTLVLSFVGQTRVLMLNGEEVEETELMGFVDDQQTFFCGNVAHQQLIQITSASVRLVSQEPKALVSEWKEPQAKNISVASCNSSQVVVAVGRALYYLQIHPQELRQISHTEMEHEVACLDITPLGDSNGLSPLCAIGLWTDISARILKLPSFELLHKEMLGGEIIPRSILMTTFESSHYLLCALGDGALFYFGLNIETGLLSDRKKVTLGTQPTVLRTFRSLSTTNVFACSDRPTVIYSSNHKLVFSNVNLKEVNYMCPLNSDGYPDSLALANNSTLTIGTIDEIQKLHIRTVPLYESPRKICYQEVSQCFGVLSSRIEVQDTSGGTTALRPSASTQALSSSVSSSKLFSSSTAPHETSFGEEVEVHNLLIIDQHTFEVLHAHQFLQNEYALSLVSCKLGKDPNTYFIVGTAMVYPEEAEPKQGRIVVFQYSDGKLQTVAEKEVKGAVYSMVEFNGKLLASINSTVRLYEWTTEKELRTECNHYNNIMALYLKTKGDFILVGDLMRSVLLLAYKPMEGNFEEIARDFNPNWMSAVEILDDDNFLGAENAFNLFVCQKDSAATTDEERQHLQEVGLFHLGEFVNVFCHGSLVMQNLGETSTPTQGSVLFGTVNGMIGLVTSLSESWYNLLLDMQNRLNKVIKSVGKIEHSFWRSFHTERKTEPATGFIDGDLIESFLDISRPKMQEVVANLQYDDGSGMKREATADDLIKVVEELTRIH

[5] = target: T4, IKZF3 (Homo sapiens, UniProt Q96SW2+Q9UKT9); test: Western-blot assay of substrate protein degradation in hPBMCs, IKZF3; format: cell-based; settings: 24 hours of compound treatment, compounds tested at 50 nM and 500 nM (concentration of the table not stated)
T4 construct: endogenous in cells; host or cells: hPBMCs (Milecell Biotechnologies)
T4 sequence (Q9UKT9 whole entry): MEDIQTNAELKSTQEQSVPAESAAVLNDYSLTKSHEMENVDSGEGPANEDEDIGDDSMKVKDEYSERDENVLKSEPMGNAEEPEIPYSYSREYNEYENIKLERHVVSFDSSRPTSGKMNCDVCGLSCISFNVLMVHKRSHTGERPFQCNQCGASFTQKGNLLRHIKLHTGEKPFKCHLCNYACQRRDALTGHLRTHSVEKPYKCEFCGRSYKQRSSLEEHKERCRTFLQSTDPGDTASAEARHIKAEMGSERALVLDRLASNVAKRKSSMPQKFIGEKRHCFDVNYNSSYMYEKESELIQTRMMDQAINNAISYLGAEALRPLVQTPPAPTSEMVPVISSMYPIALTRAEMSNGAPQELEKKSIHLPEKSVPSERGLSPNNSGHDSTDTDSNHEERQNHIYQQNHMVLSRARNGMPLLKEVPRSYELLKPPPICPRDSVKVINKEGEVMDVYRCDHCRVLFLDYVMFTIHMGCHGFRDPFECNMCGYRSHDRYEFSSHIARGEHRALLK
T4 sequence (Q96SW2 whole entry): as the sequence (Q96SW2 whole entry) above
T4 sequence (Q16531 whole entry partner): as the sequence (Q16531 whole entry partner) above

[6] = tested on: Jurkat; test: Tumor cell proliferation inhibition (CellTiter-Meiluncell Luminescent Cell Viability Assay), Jurkat; settings: Homo sapiens, 96 h, read-out: inhibitory activity (IC50, nM) against tumor cells proliferation, Jurkat
[7] = tested on: CAL-62; test: Tumor cell proliferation inhibition (CellTiter-Meiluncell Luminescent Cell Viability Assay), CAL-62; settings: Homo sapiens, CAL-62, 96 h, read-out: inhibitory activity (IC50, nM) against tumor cells proliferation, CAL-62
[8] = tested on: MM.1R; test: Tumor cell proliferation inhibition (CellTiter-Meiluncell Luminescent Cell Viability Assay), MM.1R; settings: Homo sapiens, 96 h, read-out: inhibitory activity (IC50, nM) against tumor cells proliferation, MM.1R
[9] = tested on: Human acute T lymphocytic leukemia cells (Molt-4); test: Tumor cell proliferation inhibition (CellTiter-Meiluncell Luminescent Cell Viability Assay), Molt-4; settings: MOLT-4, 96 h, read-out: inhibitory activity (IC50, nM) against tumor cells proliferation, Molt 4
[10] = target: T5, GSPT1 (Homo sapiens, UniProt P15170+Q96SW2); test: Western-blot assay of substrate protein degradation in hPBMCs, GSPT1; format: cell-based; settings: 24 hours of compound treatment, compounds tested at 50 nM and 500 nM (concentration of the table not stated)
T5 construct: endogenous in cells; host or cells: hPBMCs (Milecell Biotechnologies)
T5 sequence (P15170 whole entry): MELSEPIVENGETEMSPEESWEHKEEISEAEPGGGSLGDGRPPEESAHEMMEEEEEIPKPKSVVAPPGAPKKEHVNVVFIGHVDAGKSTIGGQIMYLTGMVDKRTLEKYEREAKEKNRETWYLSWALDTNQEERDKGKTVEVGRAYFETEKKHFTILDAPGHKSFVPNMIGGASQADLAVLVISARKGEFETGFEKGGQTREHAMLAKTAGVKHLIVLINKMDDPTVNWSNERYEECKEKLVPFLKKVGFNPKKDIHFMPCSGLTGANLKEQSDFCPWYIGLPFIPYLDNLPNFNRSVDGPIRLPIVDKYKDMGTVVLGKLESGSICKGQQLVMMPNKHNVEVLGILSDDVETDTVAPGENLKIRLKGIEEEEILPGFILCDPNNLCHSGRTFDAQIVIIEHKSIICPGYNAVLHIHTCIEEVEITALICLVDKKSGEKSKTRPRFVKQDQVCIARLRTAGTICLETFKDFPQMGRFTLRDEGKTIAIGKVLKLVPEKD
T5 sequence (Q96SW2 whole entry): as the sequence (Q96SW2 whole entry) above
T5 sequence (Q16531 whole entry partner): as the sequence (Q16531 whole entry partner) above

[11] = target: T6, WEE1 (Homo sapiens, UniProt P30291+Q96SW2); test: Western-blot assay of substrate protein degradation in hPBMCs, WEE1; format: cell-based; settings: 24 hours of compound treatment, compounds tested at 50 nM and 500 nM (concentration of the table not stated)
T6 construct: endogenous in cells; host or cells: hPBMCs (Milecell Biotechnologies)
T6 sequence (P30291 whole entry): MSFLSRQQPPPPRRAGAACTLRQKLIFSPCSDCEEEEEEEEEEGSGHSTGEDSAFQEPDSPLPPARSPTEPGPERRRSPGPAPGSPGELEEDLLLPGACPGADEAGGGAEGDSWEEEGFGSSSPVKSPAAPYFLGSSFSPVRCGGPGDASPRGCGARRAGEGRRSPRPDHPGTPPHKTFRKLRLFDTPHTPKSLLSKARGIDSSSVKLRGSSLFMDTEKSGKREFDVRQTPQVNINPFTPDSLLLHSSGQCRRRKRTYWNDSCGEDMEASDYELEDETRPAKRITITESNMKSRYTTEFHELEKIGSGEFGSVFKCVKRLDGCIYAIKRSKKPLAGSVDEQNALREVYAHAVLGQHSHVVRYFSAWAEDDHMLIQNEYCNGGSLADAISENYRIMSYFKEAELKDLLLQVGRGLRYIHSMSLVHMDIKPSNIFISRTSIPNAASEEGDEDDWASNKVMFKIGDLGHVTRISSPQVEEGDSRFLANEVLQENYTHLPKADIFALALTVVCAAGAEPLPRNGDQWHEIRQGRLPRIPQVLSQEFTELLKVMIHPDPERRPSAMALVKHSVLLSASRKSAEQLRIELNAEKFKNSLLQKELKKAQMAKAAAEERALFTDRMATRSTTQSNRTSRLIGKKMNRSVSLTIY
T6 sequence (Q96SW2 whole entry): as the sequence (Q96SW2 whole entry) above
T6 sequence (Q16531 whole entry partner): as the sequence (Q16531 whole entry partner) above

[12] = tested on: NCI-H1975; test: Tumor cell proliferation inhibition (CellTiter-Meiluncell Luminescent Cell Viability Assay), NCI-H1975; settings: Homo sapiens, NCI-H1975, 96 h, read-out: inhibitory activity (IC50, nM) against tumor cells proliferation, H1975
Protocol: The tumor cells used herein were cultured in a cell culture medium listed in table 2 at 37°C in an incubator with 5% CO2. Prior to experimentation, all cell lines used were correctly identified by STR profiling, and tested negative for mycoplasma contamination using a mycoplasma detection kit through routine screenings.
On the following day, the test compounds of the present disclosure were subjected to serial dilution. […] Subsequently, 0.5 µL of the test compound dilution was transferred into the 96-well plate containing the cells, with each well containing 100 µL of cell culture medium. […] Into the 96-well plate, the diluted test compounds and corresponding detection reagents were added, resulting in final test compound concentrations of 500 nM and 10 nM, respectively. The experimental procedure is described below using the diluted 2 µM test compound as an example.
After the cells were treated with the compounds of the present disclosure for a specified period (the treatment durations were shown in Table 3), the cell viability assay reagent was added to the culture medium according to the kit's instructions to determine cell viability. […] All controls were treated using the same procedure as the compounds of the present disclosure. The growth inhibition curves for the compounds of the present disclosure were plotted using Prism GraphPad software, and the IC50 values were calculated therefrom.

[13] = target: T7, IKZF1 (Homo sapiens, UniProt Q13422+Q96SW2); test: Western-blot assay of substrate protein degradation in hPBMCs, IKZF1; format: cell-based; settings: 24 hours of compound treatment, compounds tested at 50 nM and 500 nM (concentration of the table not stated)
T7 construct: endogenous in cells; host or cells: hPBMCs (Milecell Biotechnologies)
T7 sequence (Q13422 whole entry): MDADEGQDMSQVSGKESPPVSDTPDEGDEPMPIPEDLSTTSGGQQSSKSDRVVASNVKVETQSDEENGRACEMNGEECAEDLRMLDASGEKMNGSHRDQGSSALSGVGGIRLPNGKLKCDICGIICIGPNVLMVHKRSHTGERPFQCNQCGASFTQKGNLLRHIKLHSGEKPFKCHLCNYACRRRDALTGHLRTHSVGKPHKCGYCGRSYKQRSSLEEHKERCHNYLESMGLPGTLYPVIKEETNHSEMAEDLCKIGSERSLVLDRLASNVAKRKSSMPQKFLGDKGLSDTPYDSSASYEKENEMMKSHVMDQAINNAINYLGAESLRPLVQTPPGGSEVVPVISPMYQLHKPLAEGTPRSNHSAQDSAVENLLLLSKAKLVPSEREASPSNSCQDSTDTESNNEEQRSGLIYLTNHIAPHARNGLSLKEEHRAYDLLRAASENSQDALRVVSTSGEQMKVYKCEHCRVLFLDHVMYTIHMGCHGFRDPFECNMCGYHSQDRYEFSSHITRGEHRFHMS
T7 sequence (Q96SW2 whole entry): as the sequence (Q96SW2 whole entry) above
T7 sequence (Q16531 whole entry partner): as the sequence (Q16531 whole entry partner) above

T1 sequence (Q96SW2 whole entry): as the sequence (Q96SW2 whole entry) above

Row | SMILES | IC50 [1] [nM] | IC50 [2] [nM] | CK1a substrate protein remaining % [3] | IKZF2 substrate protein remaining % [4] | IKZF3 substrate protein remaining % [5] | IC50 [6] [nM] | IC50 [7] [nM] | IC50 [8] [nM] | IC50 [9] [nM] | GSPT1 substrate protein remaining % [10] | Weel substrate protein remaining % [11] | IC50 [12] [nM] | IKZF 1 substrate protein remaining % [13]
1 | O=C1CCC(N2Cc3cc(CN4CCN(c5cccc(F)c5F)CC4)ccc3C2=O)C(=O)N1 (stereo not drawn) [GT-04515, 3-(5-((4-(2,3-difluorophenyl)piperazin-1-yl)methyl)-1-oxoisoindolin-2-yl)piperidine-2,6-dione] | 500 to 1000 | 50 to 100 | A (0% ≤ substrate protein remaining % ≤ 80%) | A (0% ≤ substrate protein remaining % ≤ 80%) | A (0% ≤ substrate protein remaining % ≤ 80%) | 50 to 100 | 10 to 50 | 5 to 10 | 5 to 10 | A (0% ≤ substrate protein remaining % ≤ 80%) | A (0% ≤ substrate protein remaining % ≤ 80%) | 50 to 100 | A (0% ≤ substrate protein remaining % ≤ 80%)
2 | O=C1CCC(N2Cc3cc(CN4CCN(c5cccc(Cl)c5Cl)CC4)c(F)cc3C2=O)C(=O)N1 (stereo not drawn) [GT-04527, 3-(5-((4-(2,3-dichlorophenyl)piperazin-1-yl)methyl)-6-fluoro-1-oxoisoindolin-2-yl)piperidine-2,6-dione] | – | 10 to 50 | A (0% ≤ substrate protein remaining % ≤ 80%) | A (0% ≤ substrate protein remaining % ≤ 80%) | A (0% ≤ substrate protein remaining % ≤ 80%) | 500 to 1000 | 1 to 5 | 5 to 10 | 1 to 5 | A (0% ≤ substrate protein remaining % ≤ 80%) | A (0% ≤ substrate protein remaining % ≤ 80%) | 10 to 50 | B (80%< substrate protein remaining %≤ 100%)
3 | Cc1cccc(N2CCN(Cc3ccc4c(c3)CN(C3CCC(=O)NC3=O)C4=O)CC2)n1 (stereo not drawn) [GT-04530, 3-(5-((4-(6-methylpyridin-2-yl)piperazin-1-yl)methyl)-1-oxoisoindolin-2-yl)piperidine-2,6-dione] | 500 to 1000 | 50 to 100 | A (0% ≤ substrate protein remaining % ≤ 80%) | A (0% ≤ substrate protein remaining % ≤ 80%) | A (0% ≤ substrate protein remaining % ≤ 80%) | 5 to 10 | 10 to 50 | 10 to 50 | 10 to 50 | A (0% ≤ substrate protein remaining % ≤ 80%) | A (0% ≤ substrate protein remaining % ≤ 80%) | 100 to 500 | A (0% ≤ substrate protein remaining % ≤ 80%)
4 | O=C1CCC(N2Cc3cc(CN4CCN(c5ccc(F)cn5)CC4)ccc3C2=O)C(=O)N1 (stereo not drawn) [GT-04531, 3-(5-((4-(5-fluoropyridin-2-yl)piperazin-1-yl)methyl)-1-oxoisoindolin-2-yl)piperidine-2,6-dione] | 500 to 1000 | 100 to 500 | A (0% ≤ substrate protein remaining % ≤ 80%) | A (0% ≤ substrate protein remaining % ≤ 80%) | A (0% ≤ substrate protein remaining % ≤ 80%) | 5 to 10 | 10 to 50 | 10 to 50 | 10 to 50 | A (0% ≤ substrate protein remaining % ≤ 80%) | A (0% ≤ substrate protein remaining % ≤ 80%) | 100 to 500 | A (0% ≤ substrate protein remaining % ≤ 80%)
5 | O=C1CCC(N2Cc3cc(CN4CCN(c5cc(Cl)c(Cl)cn5)CC4)ccc3C2=O)C(=O)N1 (stereo not drawn) [GT-04533, 3-(5-((4-(4,5-dichloropyridin-2-yl)piperazin-1-yl)methyl)-1-oxoisoindolin-2-yl)piperidine-2,6-dione] | 500 to 1000 | 50 to 100 | A (0% ≤ substrate protein remaining % ≤ 80%) | A (0% ≤ substrate protein remaining % ≤ 80%) | A (0% ≤ substrate protein remaining % ≤ 80%) | 1 to 5 | 5 to 10 | 1 to 5 | 1 to 5 | A (0% ≤ substrate protein remaining % ≤ 80%) | A (0% ≤ substrate protein remaining % ≤ 80%) | 50 to 100 | A (0% ≤ substrate protein remaining % ≤ 80%)
6 | Cc1cc(N2CCN(Cc3ccc4c(c3)CN(C3CCC(=O)NC3=O)C4=O)CC2)cs1 (stereo not drawn) [GT-04549, 3-(5-((4-(5-methylthiophen-3-yl)piperazin-1-yl)methyl)-1-oxoisoindolin-2-yl)piperidine-2,6-dione] | 500 to 1000 | 100 to 500 | A (0% ≤ substrate protein remaining % ≤ 80%) | A (0% ≤ substrate protein remaining % ≤ 80%) | A (0% ≤ substrate protein remaining % ≤ 80%) | 5 to 10 | 10 to 50 | 100 to 500 | 5 to 10 | A (0% ≤ substrate protein remaining % ≤ 80%) | A (0% ≤ substrate protein remaining % ≤ 80%) | 100 to 500 | A (0% ≤ substrate protein remaining % ≤ 80%)
7 | O=C1CCC(N2Cc3cc(CN4CC=C(c5cccc(Cl)c5Cl)CC4)ccc3C2=O)C(=O)N1 (stereo not drawn) [GT-04550, 3-(5-((4-(2,3-dichlorophenyl)-3,6-dihydropyridin-1(2H)-yl)methyl)-1-oxoisoindolin-2-yl)piperidine-2,6-dione] | < 500 | 1 to 5 | A (0% ≤ substrate protein remaining % ≤ 80%) | A (0% ≤ substrate protein remaining % ≤ 80%) | A (0% ≤ substrate protein remaining % ≤ 80%) | < 1 | < 1 | < 1 | < 1 | A (0% ≤ substrate protein remaining % ≤ 80%) | A (0% ≤ substrate protein remaining % ≤ 80%) | 1 to 5 | A (0% ≤ substrate protein remaining % ≤ 80%)
8 | O=C1CCC(N2Cc3cc(CN4CCC(c5cccc(Cl)c5Cl)CC4)ccc3C2=O)C(=O)N1 (stereo not drawn) [GT-04551, 3-(5-((4-(2,3-dichlorophenyl)piperidin-1-yl)methyl)-1-oxoisoindolin-2-yl)piperidine-2,6-dione] | 500 to 1000 | 10 to 50 | A (0% ≤ substrate protein remaining % ≤ 80%) | A (0% ≤ substrate protein remaining % ≤ 80%) | A (0% ≤ substrate protein remaining % ≤ 80%) | < 1 | 1 to 5 | 1 to 5 | 1 to 5 | A (0% ≤ substrate protein remaining % ≤ 80%) | A (0% ≤ substrate protein remaining % ≤ 80%) | 5 to 10 | A (0% ≤ substrate protein remaining % ≤ 80%)
9 | O=C1CCC(N2Cc3cc(CN4CCC(c5ccnc(Cl)c5Cl)CC4)ccc3C2=O)C(=O)N1 (stereo not drawn) [GT-04560, 3-(5-((4-(2,3-dichloropyridin-4-yl)piperidin-1-yl)methyl)-1-oxoisoindolin-2-yl)piperidine-2,6-dione] | 500 to 1000 | – | A (0% ≤ substrate protein remaining % ≤ 80%) | A (0% ≤ substrate protein remaining % ≤ 80%) | A (0% ≤ substrate protein remaining % ≤ 80%) | 10 to 50 | 10 to 50 | 10 to 50 | 10 to 50 | A (0% ≤ substrate protein remaining % ≤ 80%) | A (0% ≤ substrate protein remaining % ≤ 80%) | – | A (0% ≤ substrate protein remaining % ≤ 80%)
